Laboratory results reported in the NIST ThermoML archive (doi:10.1016/j.tca.2013.10.017).

Experiment: xn = mol fraction of the nth substance listed
Settings: for surface tension liquid-gas: Ring tensiometer; for mass density: 101 kPa, Liquid, Vibrating tube method

CCN(CC)CCO.Cl [2-(diethylamino)ethanol hydrochloride] + OCC(O)CO
x1 = 0.2
Settings	mass density [kg/m3]	surface tension liquid-gas [mN/m]
298.15 K	1205	58.94
303.15 K	1202	58.33
308.15 K	1199	57.63
313.15 K	1196	56.99
318.15 K	1193	56.39
323.15 K	1188	55.73
328.15 K	1187	55.16

C[P+](c1ccccc1)(c1ccccc1)c1ccccc1.[Br-] [methyltriphenylphosphonium bromide] + OCC(O)CO
x1 = 0.25
Settings	surface tension liquid-gas [mN/m]
298.15 K	59.35
303.15 K	58.81
308.15 K	58.2
313.15 K	57.68
318.15 K	57.06
323.15 K	56.45
328.15 K	55.95

C[P+](c1ccccc1)(c1ccccc1)c1ccccc1.[Br-] [methyltriphenylphosphonium bromide] + OCCO
x1 = 0.2
Settings	mass density [kg/m3]	surface tension liquid-gas [mN/m]
298.15 K	1289	47.51
303.15 K	1286	47.06
308.15 K	1282	46.57
313.15 K	1278	46.12
318.15 K	1275	45.59
323.15 K	1271	45.12
328.15 K	1267	44.64

C[N+](C)(C)CCO.[Cl-] [choline chloride] + O=C[C@H](O)[C@@H](O)[C@H](O)[C@H](O)CO
x1 = 0.67
Settings	surface tension liquid-gas [mN/m]
298.15 K	71.71
308.15 K	71.11
318.15 K	70.42
328.15 K	69.95
338.15 K	69.44
348.15 K	68.91
358.15 K	68.61

O=C(CO)[C@@H](O)[C@H](O)[C@H](O)CO [D-fructose] + C[N+](C)(C)CCO.[Cl-]
x2 = 0.67
Settings	surface tension liquid-gas [mN/m]
298.15 K	74.01
308.15 K	71.98
318.15 K	70.02
328.15 K	68.03
338.15 K	65.98
348.15 K	64.02
358.15 K	62.05

C[N+](C)(C)CCO.[Cl-] [choline chloride] + OCC(O)CO
x1 = 0.33
Settings	surface tension liquid-gas [mN/m]
298.15 K	57.24
303.15 K	56.85
308.15 K	56.43
313.15 K	55.93
318.15 K	55.45
323.15 K	55.03
328.15 K	54.55

CCN(CC)CCO.Cl [2-(diethylamino)ethanol hydrochloride] + OCCO
x1 = 0.25
Settings	mass density [kg/m3]	surface tension liquid-gas [mN/m]
298.15 K	1100	51.29
303.15 K	1097	50.74
308.15 K	1093	50.17
313.15 K	1090	49.63
318.15 K	1087	49.14
323.15 K	1084	48.67
328.15 K	1081	48.12

C[N+](C)(C)CCO.[Cl-] [choline chloride] + OCCO
x1 = 0.33
Settings	mass density [kg/m3]	surface tension liquid-gas [mN/m]
298.15 K	1118	48.91
303.15 K	1116	48.43
308.15 K	1112	47.97
313.15 K	1110	47.5
318.15 K	1106	47.03
323.15 K	1104	46.67
328.15 K	1101	46.11
